Reference: patent US5500444A, “Cardioprotective tocopherol analogs” (Hoechst Marion Roussel, Inc., priority 1994, dated 1996)
Several values for one entry are separate records, joined by “and”; a condition that tells them apart may be missing. Equal entries are not always repeated. Where two headings read alike, the source gives them in different places. Blank lines part the entries; values can stand above or below the compound they belong to.

Legend:
[1] = superoxide radicals generated by xanthine oxidase/xanthine, detected by reduction of nitro blue tetrazolium; format: biochemical; settings: for superoxide radicals scavenged: at 200 μM; for IC50: read-out: IC50 (superoxide radical scavenging)
Method: In another evaluation, superoxide radicals were generated by 4 mU of xanthine oxidase in the presence of 0.1 mM xanthine and detected by reduction of 40 μM nitro blue tetrazolium to the diformazan dye in a spectrophotometric assay as described by C. Beauchamp and I. Fridovich, (1971) Analyt. Biochem. 44, 276-287. 30 U of superoxide dismutase inhibited this reduction by 90% which, therefore, was due to superoxide radicals. […] Trolox is a commercial antioxidant and is a known potent superoxide radical scavenger. For comparison, D,L-penicillamine and N-2-mercaptopropionyl glycine at 200 μM scavenged only 14% of the superoxide radicals. Neither of the scavengers inhibited xanthine oxidase, when tested at 200 μM.

[2] = autoxidation of 1-epinephrine (superoxide radical reduction, Misra and Fridovich); format: biochemical; settings: 1-epinephrine 1×10^-4 M, EDTA 1×10^-4 M, 30° C.; read-out: 50% inhibition of the autoxidation rate (ID50)
Method: 2-(3,4-dihydro-6-hydroxy-2,5,7,8-tetramethyl-2H-1-benzopyran-2-yl)ethyl-N,N,N-trimethylammonium bromide, described in Example 1, was evaluated for its ability to reduce superoxide radicals in an assay described by H. P. Misra and J. Fridovich, 1972, J. Biol. Chem. 247, 3170-5. In this assay, the rate of autoxidation of 1-epinephrine (1×10^-4 M) in the presence of EDTA (1×10^-4 M) at 30° C. is followed spectrophotometrically following the increase of absorbance at 480 mn.
Misra and Fridovich report that bovine superoxide dismutase gave 50% inhibition at 46mg per ml.

[3] = system: rats subjected to myocardial ischemia and reperfusion; settings: Lukovic et al., 1992; cited from earlier work
β2 -receptors = settings: infarcted reperfused heart, rats; Lukovic et al., 1992; cited from earlier work
[4] = oral absorption and excretion; format: in vivo
human α1 Pi = assay: Protection of α1 Pi from leukocyte-mediated inactivation (residual elastase inhibitory capacity); format: cell-based; settings: for Relative PC50: concentration to protect 50% of elastase inhibitory capacity of α1 Pi, mean ± S.D. (n = 3) for Compound A; for inactivation of α1 Pi: zymosan-stimulated human leukocytes
Source text: Stimulated human leukocytes release radicals and other oxygen metabolites, which, during inflammation, act as microbicidal agents. At the same time, they release proteolytic enzymes, such as elastase, which are also microbicidal but potentially threaten the connective tissue of the host. An endogenous α1 -proteinase inhibitor (α1 Pi) normally protects the host tissue from proteolytic digestion. α1 Pi is, however, inactivated by the leukocyte-derived oxidants. The inactivation of α1 Pi is antagonized by the disclosed radical scavengers 2-(3,4-dihydro-6-hydroxy-2,5,7,8-tetramethyl-2H-1-benzopyran-2-yl)-N,N,N-trimethylethanammonium, 4-methylbenzylsulfonate (Compound A) and 3,4-dihydro-2-(2-dimethylaminoethyl)-2,5,7,8-tetramethyl-2H-1-benzopyran-6-ol (Compound B). The concentration needed to protect 50% of the elastase inhibitory capacity of α1 Pi (PC50) depends on the amount of stimulated leukocytes present.
The procedure described by Skosey and Chow was followed (see Skosey, J. L. and Chow, D. C. (1985) In Handbook of Methods for Oxygen Radical Research (Greenwald, R. A., ed.) pp. 413-416, CRC Press, Boca Raton). In short, human α1 Pi was incubated with zymosan-stimulated human peripheral-blood leukocytes in the absence or presence of the scavengers. The amount of α1 Pi protected from oxidative inactivation was determined by its residual elastase inhibitory capacity.

[5] = system: ligation-induced infarcted and reperfused rats; assay: Cardioprotective effects in ligation-induced infarcted and reperfused rats; format: in vivo; settings: treated group, 10 mg/kg/h i.v., individual rats No. 1-10
Method: 2-(3,4-Dihydro-2,5,7,8-tetramethyl-6-methylcarbonyloxy-2H-1-benzopyran-2-yl)ethyl-N,N,N-trimethylammonium bromide was evaluated in ligation-induced infarcted and reperfused rats as follows. One of two groups of rats was infused intravenously with a solution of test compound in saline at a rate of 2.3 ml/h (10 mg/kg/h). The control group was infused with saline at the same rate. After 10 min of drug infusion, coronary arteries were ligated surgically for 60 min, ligation was loosened to allow reperfusion for 30 min. The ligation was retied and a dye (Evans Blue) was injected. The animals were sacrificed and the heart ventricles were removed and weighed. The unstained tissue was dissected and weighed; this represents the "area at risk", i.e. the area that was deprived of blood supply by ligation. To determine the infarcted area, the tissue was incubated with 2,3,5-triphenyltetrazolium chloride. Infarcted tissue became light colored and could be dissected and weighed. Thus, for each rat that survived the ligation a measurement of "area at risk" and of "infarcted area" was obtained and the ratio was calculated as given in Tables II and III.

[6] = Affinity for cardiac tissue (radioactivity in heart and blood after intravenous 14C-labelled compound); format: in vivo, rats; settings: rat, 0.91 mg base/kg i.v.
Method: Following the procedure described in Example 9, but using ^14 C-methyl p-toluenesulfonate in place of "cold material", ^14 C-labelled 2-(3,4-dihydro-2,5,7,8-tetramethyl-6-methylcarbonyloxy-2H-1-benzopyranan-2-yl)ethyl-N,N,N-tri-^14 C-methylammonium p-toluenesulfonate was synthesized. The preparation was diluted with "cold material" to 11.74 μCi/mg base.
24 rats were given 0.91 mg base/kg by intravenous route (by canula into the jugular vein). The animals were sacrificed in groups of 3 at the time periods indicated in Table I. Immediately before sacrifice a 0.5 ml blood sample was taken from an indwelling catheter in the carotid artery. The hearts were removed, blotted and weighed. The samples of tissue and blood were solubiized with Luma Solve (a quaternary ammonium hydroxide preparation) and radioactivity was determined in a scintillation counter.

[7] = system: canine myocardial reperfusion injury; settings: Lucchesi and coworkers; cited from earlier work
hyperlipidemic rabbits = settings: Carew et al., 1987; cited from earlier work
[8] = 4 mU xanthine oxidase, 0.1 mM xanthine, 40 μM nitro blue tetrazolium

Compound: CC(C)(S)C(N)C(=O)O (racemic) [D,L-penicillamine, reference compound]
- superoxide radicals scavenged [1]: 14%
- IC50 [2]: 73 µM

Compound: Cc1c(C)c2c(c(C)c1O)CCC(C)(CC[N+](C)(C)C)O2 (racemic) [Example 1, 2-(3,4-Dihydro-6-hydroxy-2,5,7,8-tetramethyl-2H-1-benzopyran-2-yl)ethyl-N,N,N-trimethylammonium bromide]
- IC50 [2]: 138 ± 14 µM

Compound: CC(=O)Oc1c(C)c(C)c2c(c1C)CCC(C)(CC[N+](C)(C)C)O2.[Br-] (centres unmarked) [Example 2, 2-(3,4-Dihydro-2,5,7,8-tetramethyl-6-methylcarbonyloxy-2H-1-benzopyran-2-yl)ethyl-N,N,N-trimethylammonium bromide]
- Tissue at risk [5]: 307 mg and 255 mg and 176 mg and 381 mg and 310 mg and 207 mg and 395 mg and 229 mg and 50 mg and 285 mg

Compound: CC(S)C(=O)NCC(=O)O (centres unmarked) [N-2-mercaptopropionyl glycine, reference compound]
- superoxide radicals scavenged [1]: 14%
- canine myocardial reperfusion injury [7]: reduce canine myocardial reperfusion injury

Compound: CC(C)(Sc1cc(C(C)(C)C)c(O)c(C(C)(C)C)c1)Sc1cc(C(C)(C)C)c(O)c(C(C)(C)C)c1 [probucol]
- anti-atherosclerotic effect (hyperlipidemic rabbits): marked anti-atherosclerotic effect

Continued, in another order:

- oral absorption [4]: not or ally absorbed
- recovery in the feces [4]: found unchanged in the feces
- oral absorption ([4]; listed as Example 11): not orally absorbed
- IC50 [1, 8]: 28 µM
- inactivation of α1 Pi (human α1 Pi): antagonized
Compound: Cc1c(C)c2c(c(C)c1O)CCC(C)(CC[N+](C)(C)C)O2 (centres unmarked) [Compound A, 3,4-Dihydro-6-hydroxy-N,,N,N,2,5,7,8-heptamethyl-2H-1-benzopyran-2-ethanaminium 4-methylbenzenesulfonate]
- cardiac output [3]: enhanced
- contractility [3]: enhanced
- density of β2 -receptors (β2 -receptors): further increased the density of β2 -receptors
- Relative PC50 (human α1 Pi): 4.5 ± 1 μM/μg leukocyte protein

- IC50 [1, 8]: 28 µM
- inactivation of α1 Pi (human α1 Pi): antagonized
Compound: Cc1c(C)c2c(c(C)c1O)CCC(C)(CCN(C)C)O2 (centres unmarked) [Compound B, 3,4-dihydro-2-(2-dimethylaminoethyl)-2,5,7,8-tetramethyl-2H-1-benzopyran-6-ol]
- Relative PC50 (human α1 Pi): 7.3 μM/μg leukocyte protein

- affinity for heart tissue [6]: marked affinity for heart tissue
- Ratio heart/blood ([6]; 5 min): 3.05 ± 1.46
- µg equiv/g ([6]; 5 min): 1.59 ± 0.22 µg equiv/g
- µg equiv/mL ([6]; 5 min): 0.434 ± 0.351 µg equiv/mL
- Ratio heart/blood ([6]; 15 min): 6.90 ± 8.34
- µg equiv/g ([6]; 15 min): 1.73 ± 0.422 µg equiv/g
- µg equiv/mL ([6]; 15 min): 0.59 ± 0.295 µg equiv/mL
- Ratio heart/blood ([6]; 30 min): 17.33 ± 5.42
- µg equiv/g ([6]; 30 min): 1.91 ± 0.278 µg equiv/g
- µg equiv/mL ([6]; 30 min): 0.124 ± 0.032 µg equiv/mL
- Ratio heart/blood ([6]; 1 hour): 20.09 ± 2.54
- µg equiv/g ([6]; 1 hour): 2.09 ± 0.406 µg equiv/g
- µg equiv/mL ([6]; 1 hour): 0.096 ± 0.008 µg equiv/mL
- Ratio heart/blood ([6]; 2 hours): 21.90 ± 3.56
- µg equiv/g ([6]; 2 hours): 1.4 ± 0.042 µg equiv/g
- µg equiv/mL ([6]; 2 hours): 0.086 ± 0.041 µg equiv/mL
- µg equiv/g ([6]; 4 hours): 1.25 ± 0.248 µg equiv/g
- µg equiv/mL ([6]; 4 hours): 0.054 ± 0.013 µg equiv/mL
- Ratio heart/blood ([6]; 4 hours (maximum), p-toluenesulfonate, 0.91 mg/kg, 240 min): 27.15 ± 4.30 and 27.15
- Ratio heart/blood ([6]; 6 hours): 18.62 ± 2.77
- µg equiv/g ([6]; 6 hours): 0.863 ± 0.067 µg equiv/g
- µg equiv/mL ([6]; 6 hours): 0.048 ± 0.007 µg equiv/mL
- Ratio heart/blood ([6]; 8 hours): 15.12 ± 2.69
- µg equiv/g ([6]; 8 hours): 0.652 ± 0.116 µg equiv/g
- µg equiv/mL ([6]; 8 hours): 0.048 ± 0.012 µg equiv/mL
- concentration of drug in heart tissue ([6]; after 8 h): 0.65 μg equiv/g
Compound: CC(=O)Oc1c(C)c(C)c2c(c1C)CCC(C)(CC[N+](C)(C)C)O2.Cc1ccc(S(=O)(=O)[O-])cc1 (centres unmarked) [Example 9, 2-(3,4-Dihydro-2,5,7,8-tetramethyl-6-methylcarbonyloxy-2H-1-benzopyran-2-yl)ethyl-N,N,N-trimethylammonium p-toluenesulfonate]

- IC50 [1, 8]: 28 µM
- protection of α1 Pi (Relative PC50 column) (human α1 Pi; at 1 mM): Inactive at 1 mM
Compound: Cc1c(C)c2c(c(C)c1O)CCC(C)(C(=O)O)O2 (centres unmarked) [Trolox, 3,4dihydro-6-hydroxy-2,5,7,8-tetramethyl-2H-1-benzopyrane-2-carboxylic acid, reference compound]
- IC50 [2]: 105 ± 8 µM

- inhibition of nitro blue tetrazolium reduction ([1]; 30 U superoxide dismutase, 4 mU xanthine oxidase, 0.1 mM xanthine, 40 μM nitro blue tetrazolium): 90%
Compound: superoxide dismutase
- canine myocardial reperfusion injury [7]: reduce canine myocardial reperfusion injury
